According to PubChem BioAssay AID1996:
≈ marks a conversion by molar mass, not a printed value.

settings: buffer; pH 7.4; 200.0 µM

Row | Compound | solubility kinetic [µg/mL]
1 | COc1ccc(CCC(=O)NC2CCCc3ccccc32)cc1OC (centres undefined) | 47.5 (≈ 140 µM)
2 | Cc1cccc(C)c1NC(=S)N1CC(C)OC(C)C1 (centres undefined) | > 41.8
3 | Cc1cccc(C(=O)O/N=C(\N)c2ccccn2)c1 | > 38.3
4 | O=C(NCCc1cccs1)c1ccc(Cl)cc1 | > 39.9
5 | COc1ccc(C(=O)Nc2ccc(Nc3ccccc3)cc2)cc1[N+](=O)[O-] | < 0.3
6 | Cc1nc(NC(=O)c2c(-c3ccccc3Cl)noc2C)sc1C | 13 (≈ 37.4 µM)
7 | CCOC(=O)c1c(SC)[nH]c2c(Cl)cccc2c1=O | 1.4 (≈ 4.7 µM)
8 | Cc1ccc(OCCN2C(=O)C(=O)c3cc(C)ccc32)cc1 | 4.1 (≈ 13.9 µM)
9 | Clc1cccc(-c2nc(NCC3CCCO3)c3ccccc3n2)c1 (centres undefined) | 1.2 (≈ 3.53 µM)
10 | O=c1c2ccccc2nc2n1C(CBr)CS2 (centres undefined) | > 44.6
11 | CCc1cc(S(N)(=O)=O)cc(CC)c1NC(C)=O | 38.4 (≈ 142 µM)
12 | CC(C(=O)N1CCCC1)N1CCN(c2ccccc2O)CC1 (centres undefined) | > 45.5
13 | CCCc1cc(=O)[nH]c(SCC(=O)Nc2cc(S(=O)(=O)N3CCOCC3)ccc2N(CC)CC)n1 | > 78.6
14 | O=C(CNS(=O)(=O)c1ccccc1)Nc1cccc([N+](=O)[O-])c1 | 49.1 (≈ 146 µM)
15 | Cc1cccc(C)c1NC(=O)CN1C(=O)NC(C)(C2CC2)C1=O (centres undefined) | > 47.3
16 | COc1ccc(OCCSc2nc(N)cc(=O)[nH]2)cc1 | 20.7 (≈ 70.6 µM)
17 | Cc1ccc(S(=O)(=O)NC(=O)Nc2ccc(C)cc2C)cc1 | 35.1 (≈ 110 µM)
18 | CCOc1ccc(S(=O)(=O)NCc2ccc3c(c2)OCO3)cc1C | 24.3 (≈ 69.5 µM)
19 | CC(O)c1cccc(NC(=O)Cc2cccc3ccccc23)c1 (centres undefined) | 44.7 (≈ 146 µM)
20 | Cc1ccc(C(=O)O/N=C(\N)Cc2cccs2)c(Cl)c1 | 15.2 (≈ 49.2 µM)
21 | O=C1/C(=C/c2ccncc2)SC(=S)N1Cc1ccccc1 | 1.7 (≈ 5.44 µM)
22 | Cc1cccc(C(=O)Nc2scc(-c3ccc(Br)cc3)c2C(=O)O)c1 | 3.6 (≈ 8.65 µM)
23 | O=C1C2CCN(CC2)C12CC2c1ccc(C(F)(F)F)cc1 (centres undefined) | 23.9 (≈ 80.9 µM)
24 | CCOC(=O)N1CCN(C(=O)COc2cccc3c2CCN(CC)C3=O)CC1 | 44.5 (≈ 114 µM)

Row | Compound | solubility kinetic [µg/mL]
25 | C=Cc1ccc(N=Cc2c(O)ccc3ccccc23)cc1 | 0.9 (≈ 3.29 µM)
26 | c1ccc(-c2csc(Nc3ccccn3)n2)cc1 | 0.3 (≈ 1.18 µM)
27 | COc1cnc(-c2ccccn2)nc1N(C)c1ccccc1 | 39.7 (≈ 136 µM)
28 | CC(C)(C)OC(=O)NCCCCCO | > 30.5
29 | CCCn1c(=O)c2[nH]cnc2n(-c2ccc(Cl)cc2)c1=O | 44.9 (≈ 147 µM)
30 | C=CCNC(=O)c1cc2c(=O)n3cccc(C)c3nc2s1 | 3.4 (≈ 11.4 µM)
31 | COc1ccc(NC(=O)c2ccc(N3CCOCC3)nc2)cc1 | 6.3 (≈ 20.1 µM)
32 | CCOc1ccccc1C(=O)NCC(=O)OCCOc1cccc(Cl)c1 | 34 (≈ 90 µM)
33 | O=C(CCc1ccccc1)N/N=C/c1cccc(O)c1 | > 40.2
34 | COc1cc2c(cc1OC)-c1cc(Nc3ccc(F)cc3)nc(=O)n1CC2 | 2.1 (≈ 5.72 µM)
35 | CC(=O)Nc1ccc(C(=O)OCC(=O)N2CCCC2=O)cc1 | > 45.6
36 | C=CCn1c(=O)c(C(=O)Nc2cc(C)ccn2)c(O)c2ccccc21 | < 0.2
37 | N=C1c2ccccc2CN1c1ccc(F)c([N+](=O)[O-])c1 | > 40.7
38 | O=C(Nc1ccc(NC(=O)C2CC2)cc1)c1ccco1 | > 40.5
39 | COc1ccccc1N1CCN(C(=O)/C=C/c2cccc([N+](=O)[O-])c2)CC1 | 3.6 (≈ 9.8 µM)
40 | O=C(CCC(=O)NC1CCCCC1)Nc1cccnc1 | > 41.3
41 | Cc1cc(CNC(=O)c2cccnc2Cl)c2ccccc2n1 | 39.1 (≈ 125 µM)
42 | O=C(/C=C/c1ccc(Cl)c(Cl)c1)NCCCn1ccnc1 | 38.8 (≈ 120 µM)
43 | CCOC(=O)c1c(C)nsc1NC(=O)c1ccco1 | 1.6 (≈ 5.71 µM)
44 | N/C(=N\OC(=O)CCC1CCCC1)c1ccc(Cl)cc1 | 1.2 (≈ 4.07 µM)
45 | COc1cccc(NC(=O)Nc2cccc(C)n2)c1 | 0.3 (≈ 1.17 µM)
46 | O=C(Nc1ccccn1)Nc1ccccc1Cl | 0.3 (≈ 1.21 µM)
47 | O=C(O)c1c(NC(=O)N(CCO)Cc2ccccc2)sc2c1CCCC2 | 18.3 (≈ 48.9 µM)
48 | CC(=O)N/C(=C\c1ccc(C)o1)C(=O)NCc1ccccc1 | > 44.8

Row | Compound | solubility kinetic [µg/mL]
49 | Cc1cccc(NC(=O)CN(CC2CCCO2)C(=O)c2cc(S(=O)(=O)N(C)C)ccc2F)c1C (centres undefined) | > 73.7
50 | CC(=O)NC(C)(CC(=O)c1ccccc1)c1ccccc1 (centres undefined) | > 42.2
51 | Cc1ccc2[nH]c(CNC(=O)c3ccc(F)cc3)cc2c1 | 4.7 (≈ 16.6 µM)
52 | CN(C)c1ccc(C(=O)C(=O)c2ccccc2)cc1 | 10.8 (≈ 42.6 µM)
53 | COc1ccc(N2CCOCC2)c(NC(=O)c2ccc3c(c2)OCO3)c1 | 26.2 (≈ 73.5 µM)
54 | CC(SCc1ccccc1)C(=O)Nc1ccc(F)cc1 (centres undefined) | > 43.4
55 | Cc1cccnc1NC(N)=S | > 25.1
56 | Cc1cccc(C(=O)Nc2sc3c(c2C(=O)O)CCC3)c1 | > 45.2
57 | CC(C)C(NC(=O)c1cccs1)C(=O)NC1CCCCC1 (centres undefined) | 4.7 (≈ 15.2 µM)
58 | CC1=C(C)CC(C(=O)Nc2nc(C)cs2)C(C(=O)O)C1 (centres undefined) | > 44.2
59 | O=C(Nc1ccc(F)cc1)c1ccc(S(=O)(=O)N2CCOCC2)o1 | > 53.2
60 | Clc1nssc1=Nc1ccccc1 | 22.3 (≈ 97.5 µM)
61 | Cc1cc(C)cc(N2C(=O)CN(Cc3ccccc3)C2=S)c1 | 4.1 (≈ 13.2 µM)
62 | O=C1CCN(C(=S)NCc2ccccc2)CC1 | > 37.3
63 | O=C(/C=C/c1ccc(O)c(O)c1)NC(=O)c1ccccc1O | > 44.9
64 | Cc1ccc(-n2c(SCC(=O)NCC3CCCO3)nc3ccccc3c2=O)cc1 (centres undefined) | 32.4 (≈ 79.1 µM)
65 | CS(=O)(=O)c1ccc2nc(NC(=O)c3ccc(N4C(=O)CCC4=O)cc3)sc2c1 | 0.3 (≈ 0.699 µM)
66 | COc1cc(OC)cc(C(=O)NCCc2ccc(OC)c(OC)c2)c1 | 45.5 (≈ 132 µM)
67 | N#Cc1c(NCCO)ccc([N+](=O)[O-])c1NCCO | > 39.9
68 | O=C(NNC(=S)NC(=O)c1ccc(F)cc1)c1cccnc1 | > 47.7
69 | CCN(C(=O)c1cn(C)c(=O)c2ccccc12)c1ccccc1F | > 48.7
70 | NC(=NCCc1c[nH]c2ccccc12)NC(=O)c1ccc(F)cc1 | > 48.7
71 | Cc1nc(SCC(N)=O)c(C#N)c(C)c1C | 4.4 (≈ 18.7 µM)
72 | COc1cc(CNCCNC(=O)c2cccs2)cc(OC)c1OC | 44.1 (≈ 126 µM)

Row | Compound | solubility kinetic [µg/mL]
73 | S=c1[nH]cc(-c2ccc(Cl)cc2)n1Cc1ccccc1 | < 0.3
74 | COc1ccc(N2CCN(C(=O)COCC(=O)O)CC2)cc1 | > 46.3
75 | CC(=O)N=c1sccn1CC(O)c1ccccc1 (centres undefined) | > 39.3
76 | CCN(CC)CCNC(=O)C(Oc1ccccc1)Oc1ccccc1 | 45.8 (≈ 134 µM)
77 | O=C(O)CC(CC(=O)Nc1ccc(-c2ccccc2)cc1)c1ccccc1 (centres undefined) | > 53.9
78 | Cc1nn(CC(=O)NC(C)c2ccccc2)c(C)c1[N+](=O)[O-] (centres undefined) | > 45.3
79 | COc1ccc(C2c3ccsc3CCN2C(=O)C(C)(C)C)cc1 (centres undefined) | 14.9 (≈ 45.2 µM)
80 | COc1ccccc1OCCNC(=O)Nc1ccc(Br)cc1 | 1.3 (≈ 3.56 µM)
81 | COP(=O)(OC)c1nc(-c2ccc(C)cc2)oc1N1CCCCC1 | > 52.6
82 | Cc1cccc(-c2noc(CCC(=O)NC3CCCC3)n2)c1 | > 44.9
83 | COc1ccc(CCNC(=O)c2ccccc2)cc1 | > 38.3
84 | Cc1ccc(Cl)cc1N1C(=O)CC(C)(C)CC1=O | 15.7 (≈ 59.1 µM)
85 | COc1ccccc1NC(=O)NCCc1ccccc1 | > 40.5
86 | CC(C)NC(=O)CSc1nccc(-c2cccs2)n1 | 38.7 (≈ 132 µM)
87 | COC(=O)c1ccc(C)c(NC(=O)Cn2c(C)csc2=O)c1 | > 48.1
88 | CC(C)(C)c1ccc(C(=O)/C(C#N)=C/c2cccs2)cc1 | 4.1 (≈ 13.9 µM)
89 | O=C(OCC(=O)N1CCN(c2ccccc2)CC1)c1ccc([N+](=O)[O-])s1 | 7.1 (≈ 18.9 µM)
90 | COc1ccc(CNc2cc(C)nc3ccc(OC)cc23)cc1 | 37.8 (≈ 123 µM)
91 | O=C(Nc1cccc(S(=O)(=O)Nc2ccc(SC(F)F)cc2)c1)C1CCC1 | 34.8 (≈ 84.4 µM)
92 | COc1ccc(CC(=O)N2CCN(c3cccc(Cl)c3)CC2)cc1OC | 48.7 (≈ 130 µM)
93 | CCc1nc(N2CCN(C(C)=O)CC2)c2c3c(sc2n1)CCCC3 | > 51.7
94 | CCOc1ccc(C2C([N+](=O)[O-])=C(C)N(C)C(=O)N2C)cc1OC (centres undefined) | > 50.3
95 | Clc1ccc(C(CCN2CCCC2)Cc2ccccc2)cc1 (centres undefined) | 29.8 (≈ 94.9 µM)
96 | COCCCNC(=O)c1ccc(-c2csc(C)n2)cc1 | > 43.6

Row | Compound | solubility kinetic [µg/mL]
97 | CC1CCN(S(=O)(=O)c2cccc(C(=O)Nc3ccccc3)c2)CC1 | 1.3 (≈ 3.63 µM)
98 | CCCC(CCC)C(=O)OC1C[C@H]2CC[C@@H](C1)[N+]2(C)C.[Br-] (some centres undefined) | > 54.4
99 | O=C(COC(=O)CNC(=O)c1ccc(Cl)c([N+](=O)[O-])c1)NC(=O)c1ccccc1 | 52.9 (≈ 126 µM)
100 | COc1ccccc1CNC(=O)c1ccc2ccccc2n1 | 15.8 (≈ 54 µM)
101 | CCOC(=O)N1CCN(C(=O)Cc2ccccc2[N+](=O)[O-])CC1 | > 48.2
102 | NC(=O)C1CCN(c2ncccc2[N+](=O)[O-])CC1 | > 37.5
103 | COc1ccc(COC(=O)Nc2c(SC)nsc2SC)cc1 | 1 (≈ 2.81 µM)
104 | S=C(NCCCn1ccnc1)Nc1cccc(Cl)c1 | > 44.2
105 | Cn1ccnc1Sc1ccc(C(N)=O)cc1[N+](=O)[O-] | 38.7 (≈ 139 µM)
106 | COc1ccccc1CNC(=O)COc1ccc(C)cc1 | 26.2 (≈ 91.8 µM)
107 | O=C(Nc1ccno1)Nc1ccc(Cl)cc1Cl | 5.4 (≈ 19.8 µM)
108 | CCOC(=O)N1CCc2c(sc3ncn(Cc4ccc(F)cc4)c(=O)c23)C1 | 20.8 (≈ 53.7 µM)
109 | CCc1nc2cccnc2n1-c1ccc(CC(=O)O)cc1 | > 42.2
110 | CCOC(=O)CSc1nc(COc2ccccc2)nc2ccccc12 | 0.6 (≈ 1.69 µM)
111 | COC(=O)c1ccccc1NC(=O)CCn1c(=O)oc2ccccc21 | > 51.1
112 | COc1ccc(Nc2nccc(-c3ccc([N+](=O)[O-])cc3)n2)cc1 | 0.4 (≈ 1.24 µM)
113 | COc1ccc(N2C(=O)c3cccc4cccc(c34)C2=O)cc1 | < 0.6
114 | Cc1cc(C(=O)NCC2COc3ccccc3O2)c2ccccc2n1 (centres undefined) | 9.3 (≈ 27.8 µM)
115 | Cl.c1ccc(C2NCCc3ccccc32)cc1 (centres undefined) | > 36.9
116 | Cc1[nH]c2ccccc2c1/C=N/NC(=O)CNC(=O)c1ccco1 | > 48.7
117 | C/C(=N\O)c1ccc2c(c1)CC(C)O2 (centres undefined) | > 28.7
118 | CS(=O)(=O)N(CC(=O)N1CCOCC1)c1ccccc1Br | > 56.6
119 | O=C1/C(=C/c2ccccn2)COc2ccccc21 | 11.3 (≈ 47.6 µM)
